PMC10424179, “Disrupting Kaposi’s Sarcoma-Associated Herpesvirus (KSHV) Latent Replication with a Small Molecule Inhibitor” (Journal of Medicinal Chemistry, 2023)

Experiments:
[1] = target: T1, oligomerization-deficient mutant of a LANA C-terminal protein fragment (aa 1008–1146) (Human herpesvirus 8 (Kaposi's sarcoma-associated herpesvirus), UniProt Q76SB0); assay: Microscale thermophoresis (MST) binding assay; design: species or system Kaposi's sarcoma-associated herpesvirus (KSHV); details: read-out: KD value (MST); LANA aa 1008–1146 mutant; means of at least three replicates
T1 sequence (Q76SB0 1008-1146): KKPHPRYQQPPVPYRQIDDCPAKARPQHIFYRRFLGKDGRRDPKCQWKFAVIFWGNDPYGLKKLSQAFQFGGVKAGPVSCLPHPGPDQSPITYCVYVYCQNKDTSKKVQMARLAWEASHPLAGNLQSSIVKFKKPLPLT
Text: (§1) In these assays, an oligomerization-deficient mutant of a LANA C-terminal protein fragment (aa 1008–1146) and an oligonucleotide representing LANA-binding site (LBS) 1 were used, which are convenient to use and handle for the described biophysical methods, while maintaining the essential DNA-binding interface.[25]
Equation y = A2 + (A1-A2)/(1 + (x/x0)^p)
1.3 Microscale Thermophoresis (MST) Assay
Microscale Thermophoresis Assay was done as mentioned in a previous publication. 2

[2] = Metabolic stability in human liver S9 fraction; assay type: in vitro ADME; details: human liver S9, 1 μM compound
Protocol: (§2) The next step was an in vitro ADMET profiling of the best seven compounds so far: 9, 11, 14, 19, 20, 21, and 27. The compounds were tested for their kinetic solubility (1% DMSO in PBS, pH 7.4), lipophilicity (chromatographic Log D7.4 value), cellular permeability (using Caco-2 cells), and metabolic stability (using mouse and human liver S9 fractions) (see Table 3). […]
(§3) 1.7 Metabolic Stability in Liver S9 Fractions
(§4) For the evaluation of combined phase I and phase II metabolic stability, the compound (1 μM) was incubated with 1 mg/mL pooled mouse liver S9 fraction (Xenotech, Kansas City, USA) or human liver S9 fraction (Corning, USA), 2 mM NADPH, 1 mM UDPGA, 10 mM MgCl 2, 5 mM GSH and 0.1 mM PAPS at 37 °C for 240 min. The metabolic stability of testosterone, verapamil and ketoconazole were determined in parallel to confirm the enzymatic activity of mouse S9 fractions, for human S9 testosterone, diclofenac and propranolol were used. The incubation was stopped after defined time points by precipitation of aliquots of S9 enzymes with 2 volumes of cold acetonitrile containing internal standard (150 nM diphenhydramine). Samples were stored on ice until the end of the incubation and precipitated protein was removed by centrifugation (15 min, 4 °C, 4,000 g). Concentration of the remaining test compound at the different time points was analyzed by HPLC-MS/MS (TSQ Quantum Access MAX, Thermo Fisher, Dreieich, Germany) and used to determine half -life (t1/2). Values are means of three

[3] = Chromatographic LogD7.4; assay type: physicochemical; details: reversed-phase HPLC, NUCLEODUR C18 Pyramid column; pH 7.4, HPLC-MS based; read-out: Chrom. LogD7.4
Protocol: as §2
LogD7.4 was analyzed using an HPLC−MS based method. The retention time of 12 compounds with known LogD7.4 was determined and plotted toward their LogD7.4. Linear regression was used to determine the LogD7.4 of unknown compounds. Analysis was performed using a Dionex Ultimate 3000 HPLC system coupled to a TSQ Quantum Access MAX (Thermo Fisher, Dreieich, Germany) with the following conditions: EC150/2 NUCLEODUR C18 Pyramid column, 5 μM (Macherey Nagel, Düren, Germany); eluent A: 50 mM NH4OAc pH 7.4, eluent B: acetonitrile, and flow: 0.6 mL/min. The gradient was set to 0−100% B from 0 to 2.5 min, […]
are means of two replicates. […]

[4] = target: LANA–DNA interaction (oligomerization-deficient LANA DBD aa 1008–1146 mutant / LBS1) (Human herpesvirus 8 (Kaposi's sarcoma-associated herpesvirus), UniProt Q76SB0); assay: Electrophoretic mobility shift assay (EMSA), LANA DBD mutant with LBS1 oligonucleotide; assay type: biochemical, Kaposi's sarcoma-associated herpesvirus (KSHV); details: compound at 250 μM; LBS1 oligonucleotide; LANA aa 1008–1146 mutant
Protocol: as §1
Equation y = A2 + (A1-A2)/(1 + (x/x0)^p) […]
1.4 Electrophoretic Mobility Shift Assay (EMSA)
The EMSA was carried out with slight modific ations as described previously 2 based on the assay in Hellert et al. (2013). 3 His-tagged oligomerization-deficient LANA DBD (aa1008-1146) mutant protein or LANA DBD (aa934-1162) wild type protein (200 nM final) was incubated with a 5´-Dy682-labeled double stranded DNA probe (IBA Lifesciences) (20 nM final) for 30 minutes at RT in the dark. The reaction buffer consisted of 30 mM Tris HCl pH 7.5, 50 mM KCl, 10 mM MgCl2, 1 mM DTT, 1 mM EDTA, 10% glycerol, 0.25% Tween20, 0.5 mg/mL BSA and 0.05 mg/mL poly(dI-dC). […]
dark. 10 µL of the reaction was run on a pre -run native 5% acrylamide gel for 45 minutes at 100V with tris-borate-EDTA buffer. Images of the gels were acquired and analysed with the Odyssey (Licor) using the Image Studio software.
Fig S2: Gels of EMSA experiments at 250 μM for all compounds (A) and dose-dependent curves for compound 20 using LANA DBD mutant (B) and LANA wildtype (C) as well as LBS1. Values are means […]
Gleichung y = A2 + (A1-A2)/(1 + (x/x0)^p) […]

[5] = Caco-2 cell permeability; assay type: in vitro ADME; details: human, pH 7.4, Caco-2 monolayer, apical to basolateral
Protocol: (§5) The next step was an in vitro ADMET profiling of the best seven compounds so far: 9, 11, 14, 19, 20, 21, and 27. The compounds were tested for their kinetic solubility (1% DMSO in PBS, pH 7.4), lipophilicity (chromatographic Log D7.4 value), cellular permeability (using Caco-2 cells), and metabolic stability (using mouse and human liver S9 fractions) (see Table 3).
MTT Assay: Viability of HEK293 cells ~48 hours after treatment […]
Fig S4: MTT assay for compounds 11, 14, 19, 20 and 21 using HEK293 cells. Values are means of […]
Permeability of the compounds was assessed using Caco2 monolayers grown on Transwell® (3460 Costar, Corning). In brief, cells were seeded 60.000 cells/well in 12-well Transwell plates in DMEM medium supplemented with 10% FCS and 1% NEAA. Cells were grown for 7 to 9 days with medium replacement every other day until they reached a tight monolayer. Tightness was defined as transepithelial resistance (TEER) values >300 Ω/cm² (measured using an EVOM Volt-Ohmmeter, World Precision Instruments). At the day of permeability as say, the compound stock solutions in DMSO were diluted to 10µM in Krebs -Ringer-buffer (KRB, pH 7.4). Cells treated with KRB only served as control. Monolayer was washed two times with prewarmed KRB and incubated with 500 µl sample on the apical compartment. Samples from the basolateral side were drawn at t = 0, 15, 30, 60, 120, 180 and 300 min and replaced with fresh buffer. The plates were incubated for 5 h in a cell culture incubator with lateral shaking (200 rpm). TEER values were measured again at the end of the permeability test. Compound concentration was determined with HPLC-ESI-MS/MS in SRM mode and calculated for the cumulative transport. Values are means of three replicates.

[6] = Kinetic solubility; assay type: physicochemical; details: PBS with 1% DMSO; 1% DMSO in PBS, pH 7.4
Protocol: as §5
The desired compounds were sequentially diluted in DMSO in a 96-well plate. 1.5 µL of each well were transferred into another 96-well plate and mixed with 148.5 µL of PBS. Plates were shaken for 5 min at 600 rpm at room temperature (r.t.), and the absorbance at 620 nm was measured. Absorbance values were normalized by blank subtraction and plotted using GraphPad Prism 8.4.2 (GraphPad Software, San Diego, CA, USA). Solubility (S) was determined based on the First X value of AUC function using a threshold of 0.005. […]

[7] = Metabolic stability in mouse liver S9 fraction; assay type: in vitro ADME; details: pooled liver S9 fraction, mouse liver S9, 1 μM compound
Protocol: as §2, §3, §4

Row | SMILES | Kd [1] | Inhibition (EMSA, LBS1) @250 μM [4] | also measured
1 | Cc1cc(-c2ccc(O)cc2)ncc1-n1cc(-c2ccc(C(=O)O)cc2)nn1 [Compound 23] | 30.9 ± 3 µM |  | 
2 | Cc1cc(-c2cccnc2)ncc1-n1cc(-c2ccc(C(=O)O)cc2)nn1 [Compound 4] | 81.3 ± 10.5 µM |  | 
3 | COc1cccc(COc2cccc(-c3cc(C)c(-n4cc(-c5ccc(C(=O)O)cc5)nn4)cn3)c2)c1 [Compound 32] | 31.3 ± 3 µM |  | 
4 | Cc1cc(-c2ccccc2Cl)ncc1-n1cc(-c2ccc(C(=O)O)cc2)nn1 [Compound 14] | 4.2 ± 0.6 µM | 92% | microsomal CLint at 1 µM ([2]; read-out: MetStab Human Liver S9 Clint): < 5.8 µL/min/mg; half-life at 1 µM ([2]; read-out: MetStab Human Liver S9 t1/2): > 2 h; chromatographic logD [3]: 0.67; Papp A→B at 5 h, 10 µM [5]: 14.2 ± 1.8 ×10⁻⁶ cm/s; solubility kinetic at 5 min [6]: > 200 µM; microsomal CLint at 1 µM ([7]; read-out: MetStab Mouse Liver S9 Clint): < 5.8 µL/min/mg; half-life at 1 µM ([7]; read-out: MetStab Mouse Liver S9 t1/2): > 2 h
5 | Cc1cc(-c2cccc(Cl)c2)ncc1-n1cc(-c2ccc(C(=O)O)cc2)nn1 [Compound 15] | 22.1 ± 4.8 µM | n.i. (n.i. = no inhibition for inhibition <10%) | 
6 | COc1ccc(COc2ccc(-c3cc(C)c(-n4cc(-c5ccc(C(=O)O)cc5)nn4)cn3)cc2)cc1 [Compound 36] | 26 ± 3.8 µM |  | 
7 | Cc1cc(-c2cccc(O)c2)ncc1-n1cc(-c2ccc(C(=O)O)cc2)nn1 [Compound 22] | 26.4 ± 3.4 µM |  | 
8 | Cc1cc(-c2cncc(O)c2)ncc1-n1cc(-c2ccc(C(=O)O)cc2)nn1 [Compound 7] | 48.3 ± 11.8 µM |  | 
9 | COc1ccccc1COc1cccc(-c2cc(C)c(-n3cc(-c4ccc(C(=O)O)cc4)nn3)cn2)c1 [Compound 31] | 30.8 ± 15.9 µM |  | 
10 | Cc1cc(-c2cccc(Oc3ccccc3)c2)ncc1-n1cc(-c2ccc(C(=O)O)cc2)nn1 [Compound 28] | 71.1 ± 9.3 µM |  | 
11 | CNC(=O)c1ccc(-c2cc(C)c(-n3cc(-c4ccc(C(=O)O)cc4)nn3)cn2)cc1 [Compound 25] | 30.9 ± 3.1 µM |  | 
12 | COc1cc(COc2cccc(-c3cc(C)c(-n4cc(-c5ccc(C(=O)O)cc5)nn4)cn3)c2)cc(OC)c1 [Compound 33] | 96.7 ± 9 µM |  | 
13 | Cc1cc(-c2ccncc2)ncc1-n1cc(-c2ccc(C(=O)O)cc2)nn1 [Compound 5] | 57.5 ± 6.8 µM |  | 
14 | Cc1cc(-c2ccccc2)ncc1-n1cc(-c2ccc(C(=O)O)cc2)nn1 [Compound 13] | 7.6 ± 2 µM | n.i. (n.i. = no inhibition for inhibition <10%) | 
15 | COc1ccc(COc2ccccc2-c2cc(C)c(-n3cc(-c4ccc(C(=O)O)cc4)nn3)cn2)cc1 [Compound 35] | 46.1 ± 5.8 µM |  | 
16 | Cc1cc(-c2cccc(OCc3ccccc3Cl)c2)ncc1-n1cc(-c2ccc(C(=O)O)cc2)nn1 [Compound 30] | 159 ± 74 µM |  | 
17 | Cc1cc(-c2cncnc2)ncc1-n1cc(-c2ccc(C(=O)O)cc2)nn1 [Compound 6] | 13.3 ± 2.5 µM | 74% | 
18 | Cc1cc(-c2ccc(Cl)cc2)ncc1-n1cc(-c2ccc(C(=O)O)cc2)nn1 [Compound 16] | 37.7 ± 59.3 µM |  | 
19 | COc1cccc(-c2cc(C)c(-n3cc(-c4ccc(C(=O)O)cc4)nn3)cn2)c1 [Compound 18] | 9.6 ± 2.8 µM | n.i. (n.i. = no inhibition for inhibition <10%) | 
20 | COc1ccc(COc2cccc(-c3cc(C)c(-n4cc(-c5ccc(C(=O)O)cc5)nn4)cn3)c2)cc1 [Compound 34] | 5.3 ± 4 µM | 31% | 
21 | Cc1cc(-c2cccc(OCc3ccccc3)c2)ncc1-n1cc(-c2ccc(C(=O)O)cc2)nn1 [Compound 29] | 84.8 ± 5.6 µM |  | 
22 | Cc1cc(-c2cnc3ccccc3c2)ncc1-n1cc(-c2ccc(C(=O)O)cc2)nn1 [Compound 12] | 31 ± 2.5 µM |  | 
23 | CNC(=O)c1cccc(-c2cc(C)c(-n3cc(-c4ccc(C(=O)O)cc4)nn3)cn2)c1 [Compound 24] | 4.3 ± 0.9 µM | 40% | 
24 | Cc1cc(-c2ccc(O)nc2)ncc1-n1cc(-c2ccc(C(=O)O)cc2)nn1 [Compound 8] | 13.8 ± 2.7 µM | 42% | 
25 | COc1ccc(-c2cc(C)c(-n3cc(-c4ccc(C(=O)O)cc4)nn3)cn2)cn1 [Compound 10] | 9.2 ± 2.1 µM | n.i. (n.i. = no inhibition for inhibition <10%) | 
26 | COc1ccccc1-c1cc(C)c(-n2cc(-c3ccc(C(=O)O)cc3)nn2)cn1 [Compound 17] | 18 ± 2.7 µM | 38% | 
27 | Cc1cc(-c2cccc(C(=O)O)c2)ncc1-n1cc(-c2ccc(C(=O)O)cc2)nn1 [Compound 26] | 12.1 ± 3.7 µM | n.i. (n.i. = no inhibition for inhibition <10%) | 
